From US9708336B2, “Metallo-beta-lactamase inhibitors” (priority 2014, dated 2017)
Where two headings read alike, the source gives them in different places.

Assays:
NDM-1 = NDM-1 (Klebsiella pneumoniae, UniProt C7C422); assay: biochemical; format: biochemical; conditions: read-out: NDM-1 IC50
[1] = system: Escherichia coli expressing NDM-1 (CLB30005); assay: Antibiotic potentiation activity: synergistic concentration (MITC95) with imipenem, OD600 growth; format: cell-based; conditions: for Escherichia coli expressing NDM-1 (CLB 30005) MITC95: concentration giving 95% inhibition of bacterial growth
In short: (§1)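 Steps: colonies grown overnight at 35 °C; resuspended in saline to OD600 0.11–0.15 by strain; diluted 1:100 into 1.1× CAMHB; imipenem then compound added (antibiotic 4 μg/ml in assay); incubated 35 °C for 22–24 h; absorbance measured.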

[2] = system: Serratia marcescens expressing IMP-1 (CL5741); assay: as above; format: cell-based; conditions: for Serratia marcescens expressing IMP-1 (CL5741) MITC95: concentration giving 95% inhibition of bacterial growth
In short: as §1

[3] = system: Klebsiella pneumoniae expressing VIM-1 (IHMA599644); assay: as above; format: cell-based; conditions: for Klebsiella pneumoniae expressing VIM-1 (IHMA 599644) MITC95: concentration giving 95% inhibition of bacterial growth
In short: as §1

IMP-1 = IMP-1 (Serratia marcescens, UniProt P52699); assay: biochemical; format: biochemical; conditions: read-out: IMP-1 IC50
Chain of IMP-1 (P52699 whole entry, looked up): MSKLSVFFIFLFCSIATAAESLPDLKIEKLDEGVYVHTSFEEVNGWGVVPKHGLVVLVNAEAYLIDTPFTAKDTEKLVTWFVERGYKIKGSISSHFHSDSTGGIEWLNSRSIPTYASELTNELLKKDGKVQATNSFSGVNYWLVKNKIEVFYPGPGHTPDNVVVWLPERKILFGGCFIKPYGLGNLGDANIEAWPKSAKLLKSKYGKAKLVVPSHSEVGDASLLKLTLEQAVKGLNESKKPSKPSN

VIM-1 = VIM-1 (Pseudomonas aeruginosa (strain ATCC 15692 / DSM 22644 / CIP 104116 / JCM 14847 / LMG 12228 / 1C / PRS 101 / PAO1), UniProt A0A0F7KYQ8); assay: Enzyme activity: determination of IC50, fluorescence assay with CCF2-FA substrate (VIM-1); format: biochemical
[4] = system: Escherichia coli expressing NDM-1 (CLB30016); assay: Antibiotic potentiation activity: synergistic concentration (MITC95) with imipenem, OD600 growth; format: cell-based; conditions: for Escherichia coli expressing NDM-1 (CLB 30016) MITC95: concentration giving 95% inhibition of bacterial growth
In short: as §1

[5] = fluorescence assay with CCF2-FA substrate
[6] = NDM-1 enzyme, CCF2-FA fluorescence assay
[7] = Serratia marcescens expressing IMP-1 (CL5741), 95% growth inhibition
[8] = Klebsiella pneumoniae expressing VIM-1 (IHMA599644), 95% growth inhibition
[9] = fluorescence assay with CCF2-FA substrate, read-out: VIM-1 IC50
[10] = NDM-1 enzyme, CCF2-FA substrate
[11] = VIM-1 enzyme, CCF2-FA substrate, read-out: VIM-1 IC50
[12] = (CLB30016, NDM-1), 95% growth inhibition
[13] = Serratia marcescens CL5741 (IMP-1), 95% growth inhibition
[14] = Klebsiella pneumoniae IHMA599644 (VIM-1), 95% growth inhibition
[15] = IMP-1 enzyme, CCF2-FA substrate

Chain of NDM-1 (C7C422 whole entry, looked up, species assumed): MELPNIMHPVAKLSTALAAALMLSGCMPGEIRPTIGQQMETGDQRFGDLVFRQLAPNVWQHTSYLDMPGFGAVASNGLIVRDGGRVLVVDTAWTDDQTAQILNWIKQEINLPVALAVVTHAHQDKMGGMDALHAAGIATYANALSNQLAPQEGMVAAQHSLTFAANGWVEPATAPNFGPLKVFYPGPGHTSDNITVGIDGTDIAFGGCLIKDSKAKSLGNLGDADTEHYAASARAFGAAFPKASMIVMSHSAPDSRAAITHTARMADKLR

Row | SMILES | IC50 (NDM-1; [5]) [nM] | Escherichia coli expressing NDM-1 (CLB 30005) MITC95 [1] [µM] | Serratia marcescens expressing IMP-1 (CL5741) MITC95 [2] [µM] | Klebsiella pneumoniae expressing VIM-1 (IHMA 599644) MITC95 [3] [µM] | IC50 (IMP-1; [5]) [nM] | also measured
1 | Cn1ccnc1-c1cccc(S(N)(=O)=O)c1-c1nn[nH]n1 [Example 38, 3-(1-methyl-1H-imidazol-2-yl)-2-(2H-tetrazol-5-yl)benzenesulfonamide] | 281 | 0.7813 | 25 | 200 | 2390 | –
2 | Cn1cncc1-c1cccc(S(N)(=O)=O)c1-c1nn[nH]n1 [Example 43, 3-(1-methyl-1H-imidazol-5-yl)-2-(2H-tetrazol-5-yl)benzenesulfonamide] | 310 | 1.172 | 75 | >200 | 2090 | –
3 | CN(C(=O)c1ccc(-c2cccc(S(N)(=O)=O)c2-c2nn[nH]n2)cc1)C1CCOCC1 [Example 77, N-methyl-3′-sulfamoyl-N-(tetrahydro-2H-pyran-4-yl)-2′-(2H-tetrazol-5-yl)biphenyl-4-carboxamide] | 12 | 9.375 | 28.13 | >200 | 53.8 | –
4 | NS(=O)(=O)c1cccc(-c2ccc(OCCN3CCCCC3)cc2)c1-c1nn[nH]n1 [Example 89, 4′-(2-piperidin-1-ylethoxy)-2-(2H-tetrazol-5-yl)biphen-3-sulfonamide] | 54.7 | 4.688 | 12.5 | >200 | 319 | –
5 | CCOC(=O)CCn1cc(-c2cccc(S(N)(=O)=O)c2-c2nn[nH]n2)cn1 [Example 110, ethyl 3-{4-[3-sulfamoyl-2-(2H-tetrazol-5-yl)phenyl]-1H-pyrazol-1-yl}propanoate] | 51.9 | 9.375 | 28.13 | >200 | 445 | –
6 | NS(=O)(=O)c1nccc(-c2cccnc2)c1-c1nnn[nH]1 [Example 193, 3′-(1H-tetrazol-5-yl)-[3,4′-bipyridine]-2′-sulfonamide] | 374 | 0.7813 | 150 | 37.5 | 2660 | –
7 | CN(C)c1ccc(-c2ccnc(S(N)(=O)=O)c2-c2nn[nH]n2)cn1 [Example 211, 6-(dimethylamino)-3′-(2H-tetrazol-5-yl)-[3,4′-bipyridine]-2′-sulfonamide] | 45.6 | 0.3906 | 31.25 | 200 | 537 | –
8 | NS(=O)(=O)c1cccc(-c2ncccn2)c1-c1nn[nH]n1 [Example 39, 3-pyrimidin-2-yl-2-(2H-tetrazol-5-yl)benzenesulfonamide] | 346 | 1.563 | 50 | >200 | 2570 | –
9 | NS(=O)(=O)c1nccc(-c2ccc(C(=O)NC3CCOCC3)cc2)c1-c1nnn[nH]1 [Example 186, 4-(2-Sulfamoyl-3-(1H-tetrazol-5-yl)pyridin-4-yl)-N-(tetrahydro-2H-pyran-4-yl)benzamide] | 97.1 | 18.75 | 100 | >200 | 564 | –
10 | NS(=O)(=O)c1cccc(-c2ccnc(CO)c2)c1-c1nn[nH]n1 [Example 92, 3-[2-(hydroxymethyl)pyridin-4-yl]-2-(2H-tetrazol-5-yl)benzenesulfonamide] | – | 0.3906 | 50 | – | – | –
11 | NS(=O)(=O)c1cccc(-c2nccs2)c1-c1nn[nH]n1 [Example 35, 2-(2H-tetrazol-5-yl)-3-(1,3-thiazol-2-yl)benzenesulfonamide] | 138 | 1.953 | 50 | 100 | 2680 | –
12 | NS(=O)(=O)c1cccc(-c2csc(CN3CCOCC3)c2)c1-c1nn[nH]n1 [Example 103, 3-[5-(morpholin-4-ylmethyl)thiophen-3-yl]-2-(2H-tetrazol-5-yl)benzenesulfonamide] | 49.4 | 9.375 | 15.63 | >200 | 311 | –
13 | COC(=O)c1ccc(-c2nn[nH]n2)c(S(N)(=O)=O)c1 [Example 255, Methyl 3-sulfamoyl-4-(2H-tetrazol-5-yl)benzoate] | – | – | – | – | – | IC50 (NDM-1; [6]): 699 nM; Escherichia coli MITC95 ([1]; Escherichia coli expressing NDM-1 (CLB30005), 95% growth inhibition): 25 µM; Serratia marcescens MITC95 [2, 7]: >200 µM; Klebsiella pneumoniae MITC95 [3, 8]: >200 µM
14 | NS(=O)(=O)c1nccc(N2CCC(c3cccnc3)CC2)c1-c1nnn[nH]1 [Example 218, 4-(4-pyridin-3-ylpiperidin-1-yl)-3-(1H-tetrazol-5-yl)pyridine-2-sulfonamide] | 102 | – | 25 | 100 | 484 | IC50 (VIM-1; [9]): 106 nM; Escherichia coli expressing NDM-1 (CLB 30016) MITC95 [4]: 12.5 µM
15 | NC[C@H]1CC[C@@H](c2ccc(CCC3CCNCC3)c(S(N)(=O)=O)c2-c2nnn[nH]2)CC1 [Example 592, 3-((1s,4s)-4-(aminomethyl)cyclohexyl)-6-(2-(piperidin-4-yl)ethyl)-2-(1H-tetrazol-5-yl)benzenesulfonamide] | – | – | – | – | – | IC50 (NDM-1; [10]): 8.6 nM; IC50 (VIM-1; [11]): 34.8 nM; Escherichia coli MITC95 [4, 12]: 1.563 µM; Serratia marcescens MITC95 [2, 13]: 3.125 µM; Klebsiella pneumoniae MITC95 [3, 14]: 12.5 µM; IC50 (IMP-1; [15]): 84.1 nM
16 | Nc1cccc2c(-c3ccc(C(F)(F)F)c(S(N)(=O)=O)c3-c3nn[nH]n3)cc(C(=O)O)nc12 [Example 526, 8-Amino-4-(3-sulfamoyl-2-(2H-tetrazol-5-yl)-4-(trifluoromethyl)phenyl)quinoline-2-carboxylic acid] | – | – | – | – | – | IC50 (NDM-1; [10]): 1.85 nM; IC50 (VIM-1; [11]): 1.59 nM; Escherichia coli MITC95 [4, 12]: 25 µM; Serratia marcescens MITC95 [2, 13]: 100 µM; Klebsiella pneumoniae MITC95 [3, 14]: 50 µM; IC50 (IMP-1; [15]): 4.58 nM
17 | NS(=O)(=O)c1c(C(F)(F)F)ccc(-c2ccc(CO)cc2)c1-c1nn[nH]n1 [Example 445, 4′-(hydroxymethyl)-2-(2H-tetrazol-5-yl)-4-(trifluoromethyl)-[1,1′-biphenyl]-3-sulfonamide] | – | – | – | – | – | IC50 (NDM-1; [6]): 1.28 nM; IC50 (VIM-1; VIM-1 enzyme, CCF2-FA fluorescence assay, read-out: VIM-1 IC50): 1.34 nM; Escherichia coli MITC95 ([4]; Escherichia coli expressing NDM-1 (CLB30016), 95% growth inhibition): 1.547 µM; Serratia marcescens MITC95 [2, 7]: 0.125 µM; Klebsiella pneumoniae MITC95 [3, 8]: 4.688 µM; IC50 (IMP-1; IMP-1 enzyme, CCF2-FA fluorescence assay): 1.17 nM
18 | NC1(CN2CC(c3ccc(-c4ccc(C(F)(F)F)c(S(N)(=O)=O)c4-c4nnn[nH]4)cc3)C2)CC1 [Example 806, 4′-{1-[(1-aminocyclopropyl)methyl]azetidin-3-yl}-2-(1H-tetrazol-5-yl)-4-(trifluoromethyl)biphenyl-3-sulfonamide] | 4.68 | – | – | – | 7.67 | IC50 (VIM-1; [9]): 5.02 nM; Escherichia coli MITC95 ([4]; CLB30016 (NDM-1), 95% inhibition of bacterial growth): 6.25 µM; Serratia marcescens MITC95 ([2]; CL5741 (IMP-1), 95% inhibition of bacterial growth): 6.25 µM; Klebsiella pneumoniae MITC95 ([3]; IHMA599644 (VIM-1), 95% inhibition of bacterial growth): 12.5 µM
19 | Cc1nnc2ccc(-c3cccc(S(N)(=O)=O)c3-c3nnn[nH]3)cn12 [Example 113, 3-(3-methyl-[1,2,4]triazolo[4,3-a]pyridin-6-yl)-2-(1H-tetrazol-5-yl)benzenesulfonamide] | 15.4 | – | 200 | 50 | 14800 | IC50 (VIM-1; [9]): 313 nM; Escherichia coli expressing NDM-1 (CLB 30016) MITC95 [4]: 3.125 µM
20 | CN(Cc1ccccc1)c1ccnc(S(N)(=O)=O)c1-c1nnn[nH]1 [Example 229, 4-[benzyl(methyl)amino]-3-(1H-tetrazol-5-yl)pyridine-2-sulfonamide] | 204 | – | 50 | 6.25 | 466 | IC50 (VIM-1; VIM-1 IC50, fluorescence assay with CCF2-FA substrate): 2.22 nM; Escherichia coli expressing NDM-1 (CLB 30016) MITC95 [4]: 12.5 µM
